The test system of one data set is HK-2. The experiment in a line: Cytotoxicity against human HK-2 cells assessed as cell viability incubated for 72 hrs by CCK-8 assay. It counts as cell-based. The note with it: hk-2, 72 h. (Tetrazolium assays rely on reduction of a dye to a coloured formazan, in cell work by metabolically active cells.)
The subject of data set [1] is Pseudomonas aeruginosa. Briefly: Antibacterial activity against Pseudomonas aeruginosa PAO1 assessed as inhibition of bacterial growth incubated for 24 hrs by broth microdilution method. The note with it: read-out: MIC100. It is filed as functional. (Broth dilution looks for growth in wells or tubes with falling amounts of substance.)
A further data set concerns Escherichia coli. The experiment in a line: Antibacterial activity against Escherichia coli assessed as inhibition of bacterial growth incubated for 24 hrs by broth microdilution method. The conditions noted are these: read-out: MIC100. It is filed as functional.
The next data set concerns Klebsiella pneumoniae. Briefly: Antibacterial activity against Klebsiella pneumoniae assessed as inhibition of bacterial growth incubated for 24 hrs by broth microdilution method. It is filed as functional. The note with it: read-out: MIC100.
Another data set deals with Acinetobacter baumannii. The experiment in a line: Antibacterial activity against Acinetobacter baumannii assessed as inhibition of bacterial growth incubated for 24 hrs by broth microdilution method. It counts as functional. The note with it: read-out: MIC100.
Data set [2] has as its system Pseudomonas aeruginosa. Briefly: Antibacterial activity against Pseudomonas aeruginosa assessed as inhibition of bacterial growth incubated for 24 hrs by broth microdilution method. The conditions noted are these: read-out: MIC100. It is filed as functional.
A further data set relates to Moraxella catarrhalis. The experiment in a line: Antibacterial activity against Moraxella catarrhalis assessed as inhibition of bacterial growth incubated for 24 hrs by broth microdilution method. It is filed as functional. The conditions noted are these: read-out: MIC100.

Values after ≈ are worked out from the molar mass of the structure shown.

On to `CC[C@H](C)CCCCC(=O)N[C@@H](CCN)C(=O)N[C@H](C(=O)N[C@@H](CCN)C(=O)N[C@H]1CCNC(=O)[C@H]([C@@H](C)O)NC(=O)[C@H](CCN)NC(=O)[C@H](CCN)NC(=O)[C@H](CC(C)C)NC(=O)[C@@H](Cc2ccccc2)NC(=O)[C@H](CCN)NC1=O)[C@@H](C)OC(=O)[C@@H](N)CCC(=O)O`, for which the Activity entry with HK-2 was “Non-Toxic”.
With `CC[C@H](C)CCCCC(=O)N[C@@H](CCN)C(=O)N[C@H](C(=O)N[C@@H](CCN)C(=O)N[C@H]1CCNC(=O)[C@H]([C@@H](C)OC(=O)[C@@H](N)CC(=O)O)NC(=O)[C@H](CCN)NC(=O)[C@H](CCN)NC(=O)[C@H](CC(C)C)NC(=O)[C@@H](Cc2ccccc2)NC(=O)[C@H](CCN)NC1=O)[C@@H](C)OC(=O)[C@@H](N)CC(=O)O`, the MIC in the data set with Pseudomonas aeruginosa [1] came to 4 µg/mL (≈ 2.79 µM). Besides, in the data set with HK-2, the Activity result is recorded as “Non-Toxic”.
For the compound `CC[C@H](C)CCCCC(=O)N[C@@H](CCN)C(=O)N[C@H](C(=O)N[C@@H](CCN)C(=O)N[C@H]1CCNC(=O)[C@H]([C@@H](C)OC(=O)[C@@H](N)CCCCN)NC(=O)[C@H](CCN)NC(=O)[C@H](CCN)NC(=O)[C@H](CC(C)C)NC(=O)[C@@H](Cc2ccccc2)NC(=O)[C@H](CCN)NC1=O)[C@@H](C)OC(=O)[C@@H](N)CCCCN`, the MIC with Pseudomonas aeruginosa [1] was determined as 4 µg/mL (≈ 2.74 µM). The Activity entry in the data set on HK-2 is “Non-Toxic”.
Turning to `CC[C@H](C)CCCCC(=O)N[C@@H](CCN)C(=O)N[C@H](C(=O)N[C@@H](CCN)C(=O)N[C@H]1CCNC(=O)[C@H]([C@@H](C)O)NC(=O)[C@H](CCN)NC(=O)[C@H](CCN)NC(=O)[C@H](CC(C)C)NC(=O)[C@@H](Cc2ccccc2)NC(=O)[C@H](CCN)NC1=O)[C@@H](C)OC(=O)[C@@H](N)CCC(N)=O`, the Activity entry in the data set with HK-2 is listed as “Non-Toxic”.
Regarding `CCCCCCCC(=O)N[C@@H](CCN)C(=O)N[C@H](C(=O)N[C@@H](CCN)C(=O)N[C@H]1CCNC(=O)[C@H](CCC(N)=O)NC(=O)[C@H](CCN)NC(=O)[C@H](CCN)NC(=O)[C@H](CC(C)C)NC(=O)[C@@H](Cc2ccccc2)NC(=O)[C@H](CCN)NC1=O)[C@@H](C)O`, in the data set with Pseudomonas aeruginosa [1], the MIC worked out at 32 µg/mL (≈ 26.3 µM). Moreover, in the data set on HK-2, the Activity entry is “Non-Toxic”.
As for `CCCCCCCC(=O)N[C@@H](CCN)C(=O)N[C@H](C(=O)N[C@@H](CCN)C(=O)N[C@H]1CCNC(=O)[C@H](C(C)C)NC(=O)[C@H](CCN)NC(=O)[C@H](CCN)NC(=O)[C@H](CC(C)C)NC(=O)[C@@H](Cc2ccccc2)NC(=O)[C@H](CCN)NC1=O)[C@@H](C)O`, the MIC in the data set with Pseudomonas aeruginosa [1] came to 4 µg/mL (≈ 3.37 µM); in the data set on Escherichia coli it was 8 µg/mL (≈ 6.74 µM); in the data set on Klebsiella pneumoniae it was 4 µg/mL (≈ 3.37 µM); in the data set with Acinetobacter baumannii, 1 µg/mL (≈ 0.842 µM); in the data set with Pseudomonas aeruginosa [2], 0.5 µg/mL (≈ 0.421 µM); in the data set with Moraxella catarrhalis, 4 µg/mL (≈ 3.37 µM).
As to `CC(C)CCCCC(=O)N[C@@H](CCN)C(=O)N[C@@H](CC(C)C)C(=O)N[C@@H](CCN)C(=O)N[C@H]1CCNC(=O)[C@H]([C@@H](C)O)NC(=O)[C@H](CCN)NC(=O)[C@H](CCN)NC(=O)[C@H](CC(C)C)NC(=O)[C@@H](Cc2ccccc2)NC(=O)[C@H](CCN)NC1=O`, the MIC in the data set on Pseudomonas aeruginosa [1] came to 2 µg/mL (≈ 1.66 µM); with Escherichia coli, 1 µg/mL (≈ 0.832 µM); with Klebsiella pneumoniae, 1 µg/mL (≈ 0.832 µM); with Acinetobacter baumannii, 2 µg/mL (≈ 1.66 µM); in the data set on Pseudomonas aeruginosa [2], 0.25 µg/mL (≈ 0.208 µM); in the data set on Moraxella catarrhalis, 8 µg/mL (≈ 6.66 µM).
With `CC(=O)O[C@H](C)[C@H](NC(=O)[C@H](CCN)NC(=O)CCCCC(C)C)C(=O)N[C@@H](CCN)C(=O)N[C@H]1CCNC(=O)[C@H]([C@@H](C)O)NC(=O)[C@H](CCN)NC(=O)[C@H](CCN)NC(=O)[C@H](CC(C)C)NC(=O)[C@@H](Cc2ccccc2)NC(=O)[C@H](CCN)NC1=O`, the MIC with Pseudomonas aeruginosa [1] was 16 µg/mL (≈ 13 µM); in the data set on Escherichia coli it was 4 µg/mL (≈ 3.25 µM); with Klebsiella pneumoniae it was greater than 32 µg/mL; in the data set on Acinetobacter baumannii, 8 µg/mL (≈ 6.5 µM); in the data set on Pseudomonas aeruginosa [2], 0.5 µg/mL (≈ 0.406 µM); with Moraxella catarrhalis, 16 µg/mL (≈ 13 µM).
